In assay [1] the test system is Phosphorylated Ribosomal Protein S6 (RPS6) in THP-1 cells. Description: THP-1 RPS6 ELISA assay. As to conditions: 2 hours compound, 10 nM MCP-1 for 15 minutes, Phospho-RPS6 ELISA, read-out: PI3Kγ_THP1_RPS6_ELISA IC50. The class given is cell-based, Human. An outline of the steps: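 Serum-starved THP-1 cells (2×10^5/well, RPMI) preincubated with compound 2 h at 37° C, then stimulated with 10 nM MCP-1 for 15 min. Lysates assayed by phospho-RPS6 ELISA, absorbance 450 nm (540 nm correction); IC50 from percent inhibition versus log concentration.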
On the technique in general: An ELISA detects its analyte on a solid surface through an enzyme-linked reagent.

The next assay has as its target PI3Kδ (p110δ/p85α) (Homo sapiens (Human), UniProt O00329). Description: PI3Kδ scintillation proximity assay. The class given is biochemical. To be noted: recombinant human PI3Kδ 3.4 nM, 20 μM PIP2, 2 μM ATP, 120 min, room temperature. In outline: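 Recombinant p110δ/p85α (3.4 nM) with 20 μM PIP2, 2 μM ATP plus [γ-33P]ATP in MOPS pH 6.7, MgCl2, DTT, CHAPS, 2% DMSO; 120 min, room temperature. EDTA-quenched product captured on WGA SPA beads, scintillation counted. IC50 from percent solvent-control activity versus log inhibitor concentration.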
(SPA uses beads or plates that emit light when radiolabelled molecules are held near them.)

A further assay deals with PI3Kγ (p110γ) (Homo sapiens (Human), UniProt P48736). As to the kind of experiment: PI3K-γ scintillation proximity assay. The format is biochemical. As to conditions: recombinant human PI3Kγ 13 nM, 20 μM PIP2, 2 μM ATP, 120 min, room temperature. In outline:
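Recombinant human p110γ (13 nM) with 20 μM PIP2, 2 μM ATP plus [γ-33P]ATP in 20 mM MOPS pH 6.7, 10 mM MgCl2, 5 mM DTT, 0.03% CHAPS, 2% DMSO. Reaction ran 120 min at room temperature, then was quenched with EDTA and read with WGA SPA beads. IC50 came from percent-of-solvent-control curves.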

Setting [2] is: Homo sapiens, THP-1, serum starved THP-1 cells.

The structures appear in SMILES notation. pIC50: −log10 of the molar value. Structures can show the parent of a compound that is named as a salt. Where two headings read alike, the source gives them in different places.

In general, pIC50 refers to the IC50 on a negative log10 scale, so that one unit is a factor of ten.

Chain of PI3Kδ (p110δ/p85α) (O00329 whole entry): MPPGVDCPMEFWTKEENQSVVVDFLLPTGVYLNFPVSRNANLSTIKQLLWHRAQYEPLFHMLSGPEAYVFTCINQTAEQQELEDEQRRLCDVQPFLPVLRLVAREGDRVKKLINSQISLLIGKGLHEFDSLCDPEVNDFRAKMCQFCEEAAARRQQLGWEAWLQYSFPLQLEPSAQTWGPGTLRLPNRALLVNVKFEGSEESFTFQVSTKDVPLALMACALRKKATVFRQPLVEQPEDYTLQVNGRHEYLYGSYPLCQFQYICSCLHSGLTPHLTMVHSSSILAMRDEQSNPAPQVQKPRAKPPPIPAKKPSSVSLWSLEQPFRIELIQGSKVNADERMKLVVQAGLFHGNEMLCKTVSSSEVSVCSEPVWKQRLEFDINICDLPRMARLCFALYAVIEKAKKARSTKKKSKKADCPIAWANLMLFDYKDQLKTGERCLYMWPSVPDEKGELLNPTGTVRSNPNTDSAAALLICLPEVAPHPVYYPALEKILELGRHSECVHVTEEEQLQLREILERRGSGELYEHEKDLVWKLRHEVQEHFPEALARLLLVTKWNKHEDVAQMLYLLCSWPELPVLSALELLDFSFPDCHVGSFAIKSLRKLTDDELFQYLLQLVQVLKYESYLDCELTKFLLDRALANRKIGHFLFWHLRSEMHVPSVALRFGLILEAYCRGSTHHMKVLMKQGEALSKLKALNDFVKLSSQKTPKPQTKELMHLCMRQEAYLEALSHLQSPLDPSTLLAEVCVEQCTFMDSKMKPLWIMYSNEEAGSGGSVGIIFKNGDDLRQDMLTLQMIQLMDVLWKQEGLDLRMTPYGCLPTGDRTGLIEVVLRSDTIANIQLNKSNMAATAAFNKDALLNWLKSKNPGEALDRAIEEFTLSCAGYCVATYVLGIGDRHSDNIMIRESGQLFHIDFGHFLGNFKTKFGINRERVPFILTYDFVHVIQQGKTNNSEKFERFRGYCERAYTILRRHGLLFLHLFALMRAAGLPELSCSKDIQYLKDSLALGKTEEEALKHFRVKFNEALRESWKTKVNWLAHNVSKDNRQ
Chain of PI3Kδ (p110δ/p85α) (P27986 whole entry partner): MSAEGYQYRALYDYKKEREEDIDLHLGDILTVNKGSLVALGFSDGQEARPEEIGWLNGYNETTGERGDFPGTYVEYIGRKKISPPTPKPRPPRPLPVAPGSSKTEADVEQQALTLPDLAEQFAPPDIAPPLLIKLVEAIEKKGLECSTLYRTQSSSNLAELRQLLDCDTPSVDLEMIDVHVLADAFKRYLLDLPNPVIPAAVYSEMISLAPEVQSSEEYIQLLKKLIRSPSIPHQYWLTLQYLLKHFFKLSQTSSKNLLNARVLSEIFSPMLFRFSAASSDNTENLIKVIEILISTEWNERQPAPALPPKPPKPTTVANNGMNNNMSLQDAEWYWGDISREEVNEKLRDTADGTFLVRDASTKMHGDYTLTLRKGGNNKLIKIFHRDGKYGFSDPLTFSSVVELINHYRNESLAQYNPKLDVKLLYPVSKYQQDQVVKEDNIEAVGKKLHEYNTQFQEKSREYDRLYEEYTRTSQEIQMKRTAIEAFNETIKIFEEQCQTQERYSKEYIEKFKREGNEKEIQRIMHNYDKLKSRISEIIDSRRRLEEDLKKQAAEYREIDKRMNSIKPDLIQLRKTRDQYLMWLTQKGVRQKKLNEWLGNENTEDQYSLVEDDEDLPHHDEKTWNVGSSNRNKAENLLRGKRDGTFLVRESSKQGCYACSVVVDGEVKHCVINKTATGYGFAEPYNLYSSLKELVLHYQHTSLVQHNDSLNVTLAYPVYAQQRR
Chain of PI3Kγ (p110γ) (P48736 whole entry): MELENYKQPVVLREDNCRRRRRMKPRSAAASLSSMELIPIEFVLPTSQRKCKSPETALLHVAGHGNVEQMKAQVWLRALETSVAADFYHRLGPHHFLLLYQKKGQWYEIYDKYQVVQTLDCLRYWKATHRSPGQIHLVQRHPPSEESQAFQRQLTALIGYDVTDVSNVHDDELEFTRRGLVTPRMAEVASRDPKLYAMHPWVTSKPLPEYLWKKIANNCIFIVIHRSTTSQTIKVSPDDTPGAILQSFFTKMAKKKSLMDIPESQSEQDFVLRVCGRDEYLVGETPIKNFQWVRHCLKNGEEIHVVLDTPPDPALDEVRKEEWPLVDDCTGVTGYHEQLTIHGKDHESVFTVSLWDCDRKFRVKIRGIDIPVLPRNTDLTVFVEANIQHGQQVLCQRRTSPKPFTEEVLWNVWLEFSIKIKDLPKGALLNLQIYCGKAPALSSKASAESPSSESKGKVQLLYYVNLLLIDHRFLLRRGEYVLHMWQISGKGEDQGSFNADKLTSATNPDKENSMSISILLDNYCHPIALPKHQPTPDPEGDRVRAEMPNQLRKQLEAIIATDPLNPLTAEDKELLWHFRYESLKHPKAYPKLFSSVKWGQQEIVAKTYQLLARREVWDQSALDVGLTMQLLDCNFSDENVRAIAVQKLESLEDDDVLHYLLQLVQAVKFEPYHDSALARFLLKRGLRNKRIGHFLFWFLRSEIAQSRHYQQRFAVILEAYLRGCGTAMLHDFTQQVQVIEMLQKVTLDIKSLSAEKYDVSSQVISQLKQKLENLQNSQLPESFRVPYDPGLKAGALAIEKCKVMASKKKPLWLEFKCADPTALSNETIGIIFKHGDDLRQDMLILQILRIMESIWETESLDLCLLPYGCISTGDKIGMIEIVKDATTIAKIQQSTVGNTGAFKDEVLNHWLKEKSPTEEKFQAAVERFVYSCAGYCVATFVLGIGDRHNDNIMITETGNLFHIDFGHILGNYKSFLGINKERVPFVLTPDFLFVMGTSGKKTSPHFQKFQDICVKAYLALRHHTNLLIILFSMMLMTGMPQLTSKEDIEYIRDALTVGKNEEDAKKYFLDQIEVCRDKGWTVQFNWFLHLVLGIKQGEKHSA

As to `Cc1nnc(-c2cc(-c3cc4c(c(S(C)(=O)=O)c3)C(=O)N([C@@H](C)C3CC3)C4)ccn2)[nH]1` [Example 12, (S)-2-(1-Cyclopropylethyl)-5-(2-(5-methyl-4H-1,2,4-triazol-3-yl)pyridin-4-yl)-7-(methylsulfonyl)isoindolin-1-one], the figures for the negative-log IC50 (pIC50) (in assay [1] (setting [2]); on PI3Kδ (p110δ/p85α); on PI3Kγ (p110γ)) were below 6.00, below 5.70 and above 7.00, respectively.

Take `Cc1cc(-c2cc(-c3cc4c(c(S(C)(=O)=O)c3)C(=O)N([C@@H](C)C3CC3)C4)ccn2)[nH]n1` [Example 14, (S)-2-(1-Cyclopropylethyl)-5-(2-(3-methyl-1H-pyrazol-5-yl)pyridin-4-yl)-7-(methylsulfonyl)isoindolin-1-one, Trifluoroacetate Salt]: the pIC50 was below 6.00 in assay [1] (setting [2]), below 5.70 at PI3Kδ (p110δ/p85α) and above 7.00 on PI3Kγ (p110γ).

As to `C[C@@H](C1CC1)N1Cc2cc(-c3ccnc(-c4ccn[nH]4)c3)cc(S(C)(=O)=O)c2C1=O` [Example 15, (S)-5-(2-(1H-Pyrazol-5-yl)pyridin-4-yl)-2-(1-cyclopropylethyl)-7-(methylsulfonyl)isoindolin-1-one, trifluoroacetate salt], the negative-log IC50 (pIC50) was below 6.00 in assay [1] (setting [2]), below 5.70 on PI3Kδ (p110δ/p85α) and above 7.00 on PI3Kγ (p110γ).

On to `Cc1cnc(-c2cc(-c3cc4c(c(S(C)(=O)=O)c3)C(=O)N([C@@H](C)C3CC3)C4)ccn2)[nH]1` [Example 16, (S)-2-(1-Cyclopropylethyl)-5-(2-(5-methyl-1H-imidazol-2-yl)pyridin-4-yl)-7-(methylsulfonyl)isoindolin-1-one, Trifluoroacetate Salt], for which the results for the pIC50 (in assay [1] (setting [2]); at PI3Kδ (p110δ/p85α); at PI3Kγ (p110γ)) were above 7.00, 5.70 to 6.30 and above 7.00, respectively.

As to `C[C@@H](C1CC1)N1Cc2cc(-c3ccnc(-c4ncc[nH]4)c3)cc(S(C)(=O)=O)c2C1=O` [Example 17, (S)-5-(2-(1H-Imidazol-2-yl)pyridin-4-yl)-2-(1-cyclopropylethyl)-7-(methylsulfonyl)isoindolin-1-one, trifluoroacetate salt], the values for the pIC50 (in assay [1] (setting [2]); on PI3Kδ (p110δ/p85α); on PI3Kγ (p110γ)) were 6.00 to 6.30, below 5.70 and above 7.00, respectively.

On to `Cc1nc(-c2cc(-c3cc4c(c(C(O)CO)c3)C(=O)N([C@@H](C)C3CC3)C4)ccn2)[nH]c1C` (stereo partly drawn) [Example 18, 2-((S)-1-Cyclopropylethyl)-7-(1,2-dihydroxyethyl)-5-(2-(4,5-dimethyl-1H-imidazol-2-yl)pyridin-4-yl)isoindolin-1-one], for which the values for the pIC50 (in assay [1] (setting [2]); at PI3Kδ (p110δ/p85α); at PI3Kγ (p110γ)) were 6.30 to 7.00, below 5.70 and above 7.00, respectively.

As to `Cc1nc(-c2cc(-c3cc4c(c(S(C)(=N)=O)c3)C(=O)N([C@@H](C)C3CC3)C4)ccn2)[nH]c1C` (stereo partly drawn) [Example 20, 2-((S)-1-Cyclopropylethyl)-5-(2-(4,5-dimethyl-1H-imidazol-2-yl)pyridin-4-yl)-7-(S-methylsulfonimidoyl)isoindolin-1-one, Trifluoroacetate Salt], the pIC50 in assay [1] (serum starved THP-1 cells, Trifluoroacetate Salt) is 6.30 to 7.00; on PI3Kδ (p110δ/p85α), below 5.70; on PI3Kγ (p110γ), above 7.00.

Consider `CN=S(C)(=O)c1cc(-c2ccnc(-c3nc(C)c(C)[nH]3)c2)cc2c1C(=O)N([C@@H](C)C1CC1)C2` (stereo partly drawn) [Example 23, 2-((S)-1-Cyclopropylethyl)-5-(2-(4,5-dimethyl-1H-imidazol-2-yl)pyridin-4-yl)-7-(N,S-dimethylsulfonimidoyl)isoindolin-1-one], for which the pIC50 is 6.30 to 7.00 in assay [1] (setting [2]), 5.70 to 6.30 on PI3Kδ (p110δ/p85α) and above 7.00 at PI3Kγ (p110γ).

These data come from patent publication US11396502B2, “Substituted heterocyclic derivatives as PI3K inhibitors” (Incyte Corporation, priority 2018, dated 2022).
